Results published in ChEMBL document CHEMBL3853314, “G-Protein-Coupled Receptor Kinase 2 (GRK2) Inhibitors: Current Trends and Future Perspectives” (J Med Chem, 2016).
Counter-ions that a name gives are not always drawn. Peptide text beside a SMILES is read from it.

Assays:
[1] = Inhibition of human PKA catalytic subunit
[2] = target: Beta-adrenergic receptor kinase 1 (Homo sapiens, UniProt P25098, S670A); test: Inhibition of human GRK2 S670A mutant assessed as decrease in phosphorylation of light-activated bovine rod outer segments after 5 mins by SDS-PAGE analysis
Beta-adrenergic receptor kinase 1 (Homo sapiens, UniProt P25098, S670A), sequence (P25098 whole entry S670A): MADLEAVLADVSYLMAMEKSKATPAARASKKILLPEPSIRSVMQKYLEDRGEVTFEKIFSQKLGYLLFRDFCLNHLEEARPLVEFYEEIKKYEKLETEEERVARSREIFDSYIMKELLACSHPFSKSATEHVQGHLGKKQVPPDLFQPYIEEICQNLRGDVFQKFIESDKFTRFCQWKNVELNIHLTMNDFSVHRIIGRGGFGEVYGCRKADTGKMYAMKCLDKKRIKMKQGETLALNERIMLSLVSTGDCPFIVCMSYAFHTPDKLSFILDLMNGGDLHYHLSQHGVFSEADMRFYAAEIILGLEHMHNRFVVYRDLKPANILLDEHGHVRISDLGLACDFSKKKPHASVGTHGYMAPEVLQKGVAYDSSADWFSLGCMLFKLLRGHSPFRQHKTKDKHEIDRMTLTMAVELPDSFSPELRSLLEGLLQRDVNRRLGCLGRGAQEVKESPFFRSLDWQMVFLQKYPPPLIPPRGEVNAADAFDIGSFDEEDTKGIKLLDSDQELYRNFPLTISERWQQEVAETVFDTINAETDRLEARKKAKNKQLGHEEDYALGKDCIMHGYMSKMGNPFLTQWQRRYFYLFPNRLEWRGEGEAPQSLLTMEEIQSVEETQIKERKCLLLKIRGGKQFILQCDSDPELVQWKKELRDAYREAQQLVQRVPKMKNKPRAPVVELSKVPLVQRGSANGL

[3] = Inhibition of PKA (unknown origin) using LRRASLG as substrate incubated for 30 mins by ADP-Glo assay; set-up: species or system Homo sapiens
Rhodopsin kinase GRK1 = target: T1, Rhodopsin kinase GRK1 (Bos taurus, UniProt P28327); test: Inhibition of bovine GRK1 (1 to 535 residues) assessed as decrease in phosphorylation of tubulin after 5 mins by SDS-PAGE analysis
T1 sequence (P28327 whole entry): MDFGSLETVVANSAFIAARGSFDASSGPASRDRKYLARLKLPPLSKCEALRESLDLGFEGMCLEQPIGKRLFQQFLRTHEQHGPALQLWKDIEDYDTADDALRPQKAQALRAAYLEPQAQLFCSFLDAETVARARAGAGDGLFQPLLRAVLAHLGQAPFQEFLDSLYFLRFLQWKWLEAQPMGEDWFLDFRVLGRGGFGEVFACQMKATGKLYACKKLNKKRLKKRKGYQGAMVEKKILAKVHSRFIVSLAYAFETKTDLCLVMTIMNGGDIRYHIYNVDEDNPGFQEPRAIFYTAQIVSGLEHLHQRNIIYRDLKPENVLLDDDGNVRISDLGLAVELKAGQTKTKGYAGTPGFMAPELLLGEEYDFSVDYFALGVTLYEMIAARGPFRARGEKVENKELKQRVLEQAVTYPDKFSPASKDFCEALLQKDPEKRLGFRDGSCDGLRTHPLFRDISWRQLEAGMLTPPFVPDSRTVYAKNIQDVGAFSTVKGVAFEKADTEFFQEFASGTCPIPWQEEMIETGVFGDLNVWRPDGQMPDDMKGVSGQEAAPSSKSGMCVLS

[4] = target: G protein-coupled receptor kinase 5 (Bos taurus, UniProt P43249); test: Inhibition of bovine GRK5 assessed as decrease in phosphorylation of tubulin after 5 mins by SDS-PAGE analysis
G protein-coupled receptor kinase 5 (Bos taurus, UniProt P43249), sequence (P43249 whole entry): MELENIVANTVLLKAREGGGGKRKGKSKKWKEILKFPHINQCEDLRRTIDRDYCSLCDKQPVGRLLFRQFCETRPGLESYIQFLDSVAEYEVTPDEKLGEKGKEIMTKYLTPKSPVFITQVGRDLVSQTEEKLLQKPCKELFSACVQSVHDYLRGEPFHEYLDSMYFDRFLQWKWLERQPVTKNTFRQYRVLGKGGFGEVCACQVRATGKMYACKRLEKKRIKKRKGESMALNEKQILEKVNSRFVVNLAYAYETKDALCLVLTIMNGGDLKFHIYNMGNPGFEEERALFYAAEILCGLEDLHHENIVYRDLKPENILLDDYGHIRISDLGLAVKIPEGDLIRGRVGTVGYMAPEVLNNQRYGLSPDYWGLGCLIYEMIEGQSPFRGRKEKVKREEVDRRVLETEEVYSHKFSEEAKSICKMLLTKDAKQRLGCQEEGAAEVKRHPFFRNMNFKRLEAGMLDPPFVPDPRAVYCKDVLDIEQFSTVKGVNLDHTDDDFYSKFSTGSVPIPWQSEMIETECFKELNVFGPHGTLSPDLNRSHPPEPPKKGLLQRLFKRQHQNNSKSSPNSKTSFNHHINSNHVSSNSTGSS

[5] = target: T2, Beta-adrenergic receptor kinase 1 (Bos taurus, UniProt P21146); test: Inhibition of bovine cerebral cortex GRK2 assessed as decrease in rhodopsin phosphorylation by SDS-PAGE analysis
T2 sequence (P21146 whole entry): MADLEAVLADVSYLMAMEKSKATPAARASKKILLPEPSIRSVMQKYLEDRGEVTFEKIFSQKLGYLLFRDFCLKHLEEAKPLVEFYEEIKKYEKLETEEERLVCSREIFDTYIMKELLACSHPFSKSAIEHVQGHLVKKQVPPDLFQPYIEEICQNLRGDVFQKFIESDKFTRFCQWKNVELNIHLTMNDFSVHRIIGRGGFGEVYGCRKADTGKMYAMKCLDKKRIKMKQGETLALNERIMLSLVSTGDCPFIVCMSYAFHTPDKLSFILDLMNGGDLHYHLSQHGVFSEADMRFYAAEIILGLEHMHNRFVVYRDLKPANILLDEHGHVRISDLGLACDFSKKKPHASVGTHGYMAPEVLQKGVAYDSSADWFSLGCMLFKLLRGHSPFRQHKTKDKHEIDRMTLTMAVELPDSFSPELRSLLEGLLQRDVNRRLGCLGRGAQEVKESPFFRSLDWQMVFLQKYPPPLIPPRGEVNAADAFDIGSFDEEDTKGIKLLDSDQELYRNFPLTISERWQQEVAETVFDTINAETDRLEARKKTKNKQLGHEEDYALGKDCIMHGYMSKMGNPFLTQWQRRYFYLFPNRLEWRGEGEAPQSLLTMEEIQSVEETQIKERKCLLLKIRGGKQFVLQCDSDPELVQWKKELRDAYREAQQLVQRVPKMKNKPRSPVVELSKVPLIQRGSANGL

[6] = target: T3, G protein-coupled receptor kinase 3 (Bos taurus, UniProt P26818); test: Inhibition of recombinant bovine GRK3 expressed in Sf9 insect cells assessed as decrease in phosphorylation of urea-washed bovine rod outer segments in presence of Gbetagamma subunits and [gamma-32P]-ATP after 5 to 60 mins by SDS-PAGE analysis
T3 sequence (P26818 whole entry): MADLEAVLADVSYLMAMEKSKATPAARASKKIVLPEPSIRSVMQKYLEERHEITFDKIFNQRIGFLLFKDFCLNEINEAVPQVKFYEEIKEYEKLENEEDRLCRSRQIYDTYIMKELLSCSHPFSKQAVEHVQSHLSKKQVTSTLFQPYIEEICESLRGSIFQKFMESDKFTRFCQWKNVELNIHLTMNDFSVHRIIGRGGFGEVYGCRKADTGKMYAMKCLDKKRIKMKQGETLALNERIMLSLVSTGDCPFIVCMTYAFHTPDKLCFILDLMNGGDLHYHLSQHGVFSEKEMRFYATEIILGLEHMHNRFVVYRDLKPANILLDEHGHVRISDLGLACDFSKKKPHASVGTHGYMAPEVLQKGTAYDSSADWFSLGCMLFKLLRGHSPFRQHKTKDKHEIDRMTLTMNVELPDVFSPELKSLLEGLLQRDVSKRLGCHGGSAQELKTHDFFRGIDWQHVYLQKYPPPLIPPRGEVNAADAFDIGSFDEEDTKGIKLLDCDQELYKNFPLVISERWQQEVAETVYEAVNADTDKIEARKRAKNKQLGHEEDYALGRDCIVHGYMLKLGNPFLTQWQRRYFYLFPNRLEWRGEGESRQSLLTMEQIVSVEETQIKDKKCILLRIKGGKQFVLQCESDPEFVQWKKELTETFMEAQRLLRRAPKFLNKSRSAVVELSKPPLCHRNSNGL

[7] = target: Beta-adrenergic receptor kinase 1 (Bos taurus, UniProt P21146, S670A); test: Inhibition of bovine GRK2 expressed in Sf9 insect cells assessed as decrease in phosphorylation of urea-washed bovine rod outer segments in presence of Gbetagamma subunits and [gamma-32P]-ATP after 5 to 60 mins by SDS-PAGE analysis
Beta-adrenergic receptor kinase 1 (Bos taurus, UniProt P21146, S670A), sequence (P21146 whole entry S670A): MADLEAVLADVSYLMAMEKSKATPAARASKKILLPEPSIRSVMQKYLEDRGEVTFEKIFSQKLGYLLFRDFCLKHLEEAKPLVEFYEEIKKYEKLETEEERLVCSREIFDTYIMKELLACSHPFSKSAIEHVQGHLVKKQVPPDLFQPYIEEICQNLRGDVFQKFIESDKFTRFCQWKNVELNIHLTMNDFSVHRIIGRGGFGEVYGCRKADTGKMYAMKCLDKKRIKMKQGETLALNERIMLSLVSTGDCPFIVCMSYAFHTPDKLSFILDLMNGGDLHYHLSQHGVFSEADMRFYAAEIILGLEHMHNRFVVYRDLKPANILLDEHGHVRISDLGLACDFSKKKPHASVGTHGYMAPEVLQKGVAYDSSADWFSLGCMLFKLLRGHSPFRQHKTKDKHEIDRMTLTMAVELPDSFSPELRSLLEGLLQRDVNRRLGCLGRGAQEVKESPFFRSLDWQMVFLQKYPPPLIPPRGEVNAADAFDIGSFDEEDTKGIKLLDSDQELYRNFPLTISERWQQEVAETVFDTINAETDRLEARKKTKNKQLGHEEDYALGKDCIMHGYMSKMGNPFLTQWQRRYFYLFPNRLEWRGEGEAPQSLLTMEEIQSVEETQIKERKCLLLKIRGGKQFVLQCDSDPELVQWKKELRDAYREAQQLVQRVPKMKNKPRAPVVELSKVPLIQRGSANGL

[8] = target: G protein-coupled receptor kinase 5 (Homo sapiens, UniProt P34947); test: Inhibition of recombinant human GRK5 expressed in Sf9 insect cells assessed as decrease in phosphorylation of urea-washed bovine rod outer segments in presence of Gbetagamma subunits and [gamma-32P]-ATP after 5 to 60 mins by SDS-PAGE analysis
G protein-coupled receptor kinase 5 (Homo sapiens, UniProt P34947), sequence (P34947 whole entry): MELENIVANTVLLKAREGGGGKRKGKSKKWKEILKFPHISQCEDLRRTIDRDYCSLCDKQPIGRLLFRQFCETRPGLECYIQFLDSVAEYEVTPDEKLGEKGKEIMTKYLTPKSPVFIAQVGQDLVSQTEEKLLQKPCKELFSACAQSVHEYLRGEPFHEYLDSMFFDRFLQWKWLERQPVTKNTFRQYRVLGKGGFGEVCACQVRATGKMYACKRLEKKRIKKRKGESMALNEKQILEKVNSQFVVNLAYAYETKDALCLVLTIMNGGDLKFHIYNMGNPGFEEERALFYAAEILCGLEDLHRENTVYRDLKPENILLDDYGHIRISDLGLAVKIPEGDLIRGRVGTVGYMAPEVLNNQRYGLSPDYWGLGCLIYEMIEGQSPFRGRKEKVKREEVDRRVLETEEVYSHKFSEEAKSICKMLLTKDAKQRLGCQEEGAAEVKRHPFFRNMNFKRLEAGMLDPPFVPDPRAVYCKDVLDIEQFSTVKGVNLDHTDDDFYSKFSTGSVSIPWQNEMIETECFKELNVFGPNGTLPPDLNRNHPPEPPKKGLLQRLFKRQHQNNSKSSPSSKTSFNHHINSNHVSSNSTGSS

[9] = target: Protein kinase C alpha type (Homo sapiens, UniProt P17252); test: Inhibition of recombinant full-length human N-terminal GST tagged PKCalpha expressed in Baculovirus infected Sf9 insect cells using KRREILSRRPSYR as substrate incubated for 30 mins by ADP-Glo assay

Row | Structure (SMILES) | IC50 [3] | IC50 [6] | IC50 [7] | IC50 [8] | further results
1 | Cn1c(CNc2cccc(C(=O)NCc3ccccc3C(F)(F)F)c2)nnc1-c1ccncc1 |  |  |  |  | IC50 [1]: > 2 µM
2 | O=C1NCc2ccc(OC[C@@H]3CNCC[C@H]3c3ccc(F)cc3)cc21 |  |  |  |  | IC50 [2]: 6.3 µM
3 | O=S(=O)(O)O[C@H]1[C@H](OS(=O)(=O)O)[C@@H](OS(=O)(=O)O)[C@H](OS(=O)(=O)O)[C@@H](OS(=O)(=O)O)[C@H]1OS(=O)(=O)O |  |  |  |  | IC50 [5]: 13.5 µM
4 | O=P(O)(O)O[C@@H]1[C@H](O)[C@H](O)[C@@H](O)[C@H](O)[C@H]1O |  |  |  |  | IC50 [5]: 3600 µM
5 | CC[C@H](C)[C@H](NC(=O)[C@H](Cc1ccccc1)NC(=O)[C@H](Cc1ccc(O)cc1)NC(=O)[C@H](CC(N)=O)NC(=O)[C@@H](NC(=O)[C@@H](NC(=O)[C@@H](NC(=O)[C@H](CCC(N)=O)NC(=O)[C@H](CC(C)C)NC(=O)[C@H](CCCNC(=N)N)NC(=O)[C@H](CCC(=O)O)NC(=O)[C@H](Cc1ccccc1)NC(=O)[C@H](CCCCN)NC(=O)[C@H](C)N)[C@@H](C)O)C(C)C)[C@@H](C)O)C(=O)N[C@H](C(=O)N[C@@H](CO)C(=O)N[C@@H](CCC(=O)O)C(=O)O)[C@@H](C)O (H-AKFERLQTVTNYFITSE-OH) |  | 1.5 µM | 0.6 µM | 1.6 µM | 
6 | CC[C@H](C)[C@H](NC(=O)[C@H](Cc1ccccc1)NC(=O)[C@H](Cc1ccc(O)cc1)NC(=O)[C@H](CC(N)=O)NC(=O)[C@@H](NC(=O)[C@@H](NC(=O)[C@@H](NC(=O)[C@H](CCC(N)=O)NC(=O)[C@H](CC(C)C)NC(=O)[C@H](CCCNC(=N)N)NC(=O)[C@H](CCC(=O)O)NC(=O)[C@H](Cc1ccccc1)NC(=O)[C@H](CCCCN)NC(=O)[C@H](C)N)[C@@H](C)O)C(C)C)[C@@H](C)O)C(=O)N[C@H](C(=O)N[C@@H](CO)C(=O)N[C@@H](CCCCN)C(=O)O)[C@@H](C)O (H-AKFERLQTVTNYFITSK-OH) |  | 55.5 µM | 32.2 µM | 9.4 µM | 
7 | CC[C@H](C)[C@H](NC(=O)[C@H](C)NC(=O)[C@@H](NC(=O)[C@@H](N)CCC(=O)O)[C@@H](C)O)C(=O)N[C@@H](C)C(=O)N[C@@H](CCCCN)C(=O)N[C@@H](Cc1ccccc1)C(=O)N[C@@H](CCC(=O)O)C(=O)N[C@@H](CCCNC(=N)N)C(=O)N[C@@H](CC(C)C)C(=O)N[C@@H](CCC(N)=O)C(=O)N[C@H](C(=O)N[C@H](C(=O)N[C@H](C(=O)N[C@@H](CC(N)=O)C(=O)N[C@@H](Cc1ccc(O)cc1)C(=O)N[C@@H](Cc1ccccc1)C(=O)N[C@H](C(=O)N[C@H](C(=O)N[C@@H](CO)C(=O)N[C@@H](CCCCN)C(=O)O)[C@@H](C)O)[C@@H](C)CC)[C@@H](C)O)C(C)C)[C@@H](C)O (H-ETAIAKFERLQTVTNYFITSK-OH) |  | 22.6 µM | 52.2 µM | 7.4 µM | 
8 | CC[C@H](C)[C@H](NC(=O)[C@H](C)NC(=O)[C@@H](NC(=O)[C@@H](N)CCCCN)[C@@H](C)O)C(=O)N[C@@H](C)C(=O)N[C@@H](CCCCN)C(=O)N[C@@H](Cc1ccccc1)C(=O)N[C@@H](CCC(=O)O)C(=O)N[C@@H](CCCNC(=N)N)C(=O)N[C@@H](CC(C)C)C(=O)N[C@@H](CCC(N)=O)C(=O)N[C@H](C(=O)N[C@H](C(=O)N[C@H](C(=O)N[C@@H](CC(N)=O)C(=O)O)[C@@H](C)O)C(C)C)[C@@H](C)O (H-KTAIAKFERLQTVTN-OH) |  | 11.6 µM | 5.6 µM | 2.1 µM | 
9 | CC[C@H](C)[C@H](NC(=O)[C@H](C)NC(=O)[C@@H](NC(=O)[C@@H](N)CCCCN)[C@@H](C)O)C(=O)N[C@@H](C)C(=O)N[C@@H](CCCCN)C(=O)N[C@@H](Cc1ccccc1)C(=O)N[C@@H](CCC(=O)O)C(=O)N[C@@H](CCCNC(=N)N)C(=O)N[C@@H](CC(C)C)C(=O)N[C@@H](CCC(N)=O)C(=O)N[C@H](C(=O)N[C@H](C(=O)N[C@H](C(=O)N[C@@H](CC(N)=O)C(=O)N[C@@H](Cc1ccc(O)cc1)C(=O)N[C@@H](Cc1ccccc1)C(=O)N[C@H](C(=O)N[C@H](C(=O)N[C@@H](CO)C(=O)N[C@@H](CCC(=O)O)C(=O)O)[C@@H](C)O)[C@@H](C)CC)[C@@H](C)O)C(C)C)[C@@H](C)O (H-KTAIAKFERLQTVTNYFITSE-OH) |  | 6.1 µM | 4.4 µM | 3.9 µM | 
10 | CC[C@H](C)[C@H](NC(=O)[C@H](C)NC(=O)[C@@H](NC(=O)[C@@H](N)CCCCN)[C@@H](C)O)C(=O)N[C@@H](C)C(=O)N[C@@H](CCCCN)C(=O)N[C@@H](Cc1ccccc1)C(=O)N[C@@H](CCC(=O)O)C(=O)N[C@@H](CCCNC(=N)N)C(=O)N[C@@H](CC(C)C)C(=O)N[C@@H](CCC(N)=O)C(=O)N[C@H](C(=O)N[C@H](C(=O)N[C@H](C(=O)N[C@@H](CC(N)=O)C(=O)N[C@@H](Cc1ccc(O)cc1)C(=O)N[C@@H](Cc1ccccc1)C(=O)N[C@H](C(=O)N[C@H](C(=O)N[C@@H](CO)C(=O)N[C@@H](CCCCN)C(=O)O)[C@@H](C)O)[C@@H](C)CC)[C@@H](C)O)C(C)C)[C@@H](C)O (H-KTAIAKFERLQTVTNYFITSK-OH) |  | 30.4 µM | 36.5 µM | 61.3 µM | 

Second part, led by results:

Row | IC50 [3] | IC50 [6] | IC50 [7] | IC50 [8] | Structure (SMILES) | further results
11 | 200 µM |  |  |  | CC1=C(C(=O)Nc2ccc3[nH]ncc3c2)C(c2ccc(F)cc2)N=C(c2ccc(C(F)(F)F)cc2)N1 (configuration not stated) | IC50 (Rhodopsin kinase GRK1): > 1000 µM; IC50 [4]: 631 µM
12 | > 500 µM |  |  |  | CC1=C(C(=O)Nc2ccc3[nH]ncc3c2)C(c2ccc(F)cc2)NC(=O)N1 (configuration not stated) [GSK-180736A] | 
13 | 50.1 µM |  |  |  | CC1=C(C(=O)Nc2ccc3[nH]ncc3c2)C(c2ccc3ccccc3c2)CC(=O)N1 (configuration not stated) [GSK-270822A] | 
14 | 63.1 µM |  |  |  | CC1=C(C(=O)Nc2ccc3[nH]ncc3c2)C(c2ccc(Cl)c(Cl)c2)CC(=O)N1 (configuration not stated) [GSK-299115A] | 
15 | 12.6 µM |  |  |  | CC1=C(C(=O)Nc2cc(Cl)c3[nH]ncc3c2)C(c2ccc(C(F)(F)F)cc2)CC(=O)N1 (configuration not stated) [GSK-466317A] | IC50 (Rhodopsin kinase GRK1): 1000 µM
16 | > 45 µM |  |  |  | Fc1ccc([C@@H]2CCNC[C@H]2COc2ccc3c(c2)OCO3)cc1 [PAROXETINE HYDROCHLORIDE] | IC50 [9]: 220 µM
